Results as given in US4285939A, “Cephalosporin derivatives, and antibacterial drugs containing the derivatives” (Eisai Co., Ltd., priority 1979, dated 1981).
Like-named read-outs stand apart in the source and are kept apart here.

Tests used:
Proteus morganii EP-14 = assay: Minimal inhibitory concentration, standard agar dilution method (Proteus morganii); format: cell-based; details: Morganella morganii
Experimental: (§1) Minimal inhibitory concentration (MIC) was determined by the standard agar dilution method of the Japan Society of Chemotherapy.
(§2) The compounds described in Examples 1, 2 and 5 were dissolved in sterilized water; the compound described in Example 4 was dissolved in acetone-water (1:1); and the control compounds, cephaloglycin and cephalexin monohydrate, were dissolved in a 3% sodium hydrogen carbonate solution.
(§3) Serial two-fold dilutions were made from the above solutions.
(§4) One-ml aliquots of each dilution were mixed with 9 ml of Heart influsion agar in petri-dishes to make agar plates containing the compound at serially diluted concentrations. After agar hardened, plates were put in an incubator at 37° C. for 1.5-2 hours with the lids slightly open to evaporate acetone off the plates.
(§5) Test organisms were grown for 18 hours at 37° C. in Trypticase Soy broth and diluted in saline to approximately 10^6 colony forming units per ml. A loopful of each cell suspension was applied on the agar plate mentioned above and the plates were incubated for 18 hours at 37° C. before MIC was determined.
(§6) MIC values of the compounds described in Examples 1, 2 and 5 were determined as their sodium salts and the compound described in Example 4 was determined as a free carboxylic acid.

[1] = tested on: Serratia marcescens ES-75; assay: Minimal inhibitory concentration, standard agar dilution method (Serratia marcescens); format: cell-based
Experimental: as §1, §2, §3, §4, §5, §6

Escherichia coli NIHJ = assay: Minimal inhibitory concentration, standard agar dilution method (Escherichia coli); format: cell-based
Experimental: as §1, §2, §3, §4, §5, §6

[2] = tested on: Staphylococcus aureus 209P; assay: Minimal inhibitory concentration, standard agar dilution method (Staphylococcus aureus); format: cell-based
Experimental: as §1, §2, §3, §4, §5, §6

[3] = tested on: Pseudomonas aeruginosa EP-172; assay: Minimal inhibitory concentration, standard agar dilution method (Pseudomonas aeruginosa); format: cell-based
Experimental: as §1, §2, §3, §4, §5, §6

[4] = tested on: Klebsiella pneumoniae EK-6; assay: Minimal inhibitory concentration, standard agar dilution method (Klebsiella pneumoniae); format: cell-based
Experimental: as §1, §2, §3, §4, §5, §6

[5] = acute toxicity test (mouse, oral); details: in vivo
Source text: Moreover, it has been confirmed that the compounds of this invention show low toxicity in the toxicity test. For example, the acute toxicity values [LD50 (mouse, oral)] for the following compounds were over 5 g/kg: […]

[6] = EP14, Proteus morganii EP-14, agar dilution, 18 hours at 37° C., Examples 1, 2, 5 as sodium salts, Example 4 as free acid, read-out: MIC
[7] = ES75, Serratia marcescens ES-75, agar dilution, 18 hours at 37° C., Examples 1, 2, 5 as sodium salts, Example 4 as free acid, read-out: MIC
[8] = Escherichia coli NIHJ, agar dilution, 18 hours at 37° C., Examples 1, 2, 5 as sodium salts, Example 4 as free acid, read-out: MIC
[9] = Staphylococcus aureus 209P, agar dilution, 18 hours at 37° C., Examples 1, 2, 5 as sodium salts, Example 4 as free acid, read-out: MIC
[10] = EP172, Pseudomonas aeruginosa EP-172, agar dilution, 18 hours at 37° C., Examples 1, 2, 5 as sodium salts, Example 4 as free acid, read-out: MIC
[11] = EK6, Klebsiella pneumoniae EK-6, agar dilution, 18 hours at 37° C., Examples 1, 2, 5 as sodium salts, Example 4 as free acid, read-out: MIC

SMILES	MIC (Proteus morganii EP-14; [6]) [µg/mL]	MIC [1, 7] [µg/mL]	MIC (Escherichia coli NIHJ; [8]) [µg/mL]	MIC [2, 9] [µg/mL]	MIC [3, 10] [µg/mL]	MIC [4, 11] [µg/mL]	LD50 [5] [mg/kg]	MIC (Proteus morganii EP-14; EP14, 18 h) [µg/mL]	MIC ([1]; Serratia marcescens, ES75, 18 h) [µg/mL]	MIC (Escherichia coli NIHJ; Escherichia coli, 18 h) [µg/mL]	MIC ([2]; Staphylococcus aureus, 209P, 18 h) [µg/mL]	MIC ([3]; Pseudomonas aeruginosa, EP172, 18 h) [µg/mL]	MIC ([4]; Klebsiella pneumoniae, EK6, 18 h) [µg/mL]
CC(=O)OCC1=C(C(=O)O)N2C(=O)[C@@H](NC(=O)[C@H](NC(=O)c3coc4c(OC(C)=O)c(OC(C)=O)ccc4c3=O)c3ccccc3)[C@H]2SC1 [Example 4, 7β-[D-2-(7,8-Diacetoxychromone-3-carboxamido)-2-phenylacetamido]-3-acetoxymethyl-3-cephem-4-carboxylic acid]	3.13	0.8	0.8	1.56	1.56	≤ 0.1							
CC(=O)OCC1=C(C(=O)O)N2C(=O)[C@@H](NC(=O)[C@H](NC(=O)c3coc4cc(O)c(O)cc4c3=O)c3ccccc3)[C@H]2SC1 [Example 2, 7β-[D-2-(6,7-Dihydroxychromone-3-carboxamido)-2-phenylacetamido]-3-acetoxymethyl-3cephem-4-carboxylic acid]	12.5	0.2	0.8	1.56	0.8	≤ 0.1	> 5000						
CC(=O)OCC1=C(C(=O)O)N2C(=O)[C@@H](NC(=O)[C@H](NC(=O)c3coc4cc(OC(C)=O)c(OC(C)=O)cc4c3=O)c3ccccc3)[C@H]2SC1 [Example 1, 7β-[D-2-(6,7-Diacetoxychromone-3-carboxamido)-2-phenylacetamido]-3-acetoxymethyl-3-cephem-4-carboxylic acid]	50	0.4	1.56	3.13	0.8	≤ 0.1							
CC1=C(C(=O)O)N2C(=O)[C@@H](NC(=O)[C@H](N)c3ccccc3)[C@H]2SC1 [Cephalexin mono-hydrate, cephalexin monohydrate, reference compound]								> 100	> 100	6.25	1.56	> 100	3.13
CC(=O)OCC1=C(C(=O)O)N2C(=O)[C@@H](NC(=O)[C@H](N)c3ccccc3)[C@H]2SC1 [Cephaloglycin, cephaloglycin, reference compound]	25	> 100	3.13	0.8	> 100	1.56							
CC(=O)OCC1=C(C(=O)O)N2C(=O)[C@@H](NC(=O)[C@H](NC(=O)c3coc4c(O)c(O)ccc4c3=O)c3ccccc3)[C@H]2SC1 [Example 5, 7β-[D-2-(7,8-Dihydroxychromone-3-carboxamido)-2-phenylacetamido]-3-acetoxymethyl-3-cephem-4-carboxylic acid]	12.5	1.56	3.13	1.56	1.56	0.2							
